The values below come from ChEMBL document CHEMBL3621100, “Discovery of Novel Class I Histone Deacetylase Inhibitors with Promising in Vitro and in Vivo Antitumor Activities” (J Med Chem, 2015).

SMILES strings stand for the structures. pIC50: −log10 of the molar value.

Chain of Histone deacetylase 1 (Q13547 whole entry): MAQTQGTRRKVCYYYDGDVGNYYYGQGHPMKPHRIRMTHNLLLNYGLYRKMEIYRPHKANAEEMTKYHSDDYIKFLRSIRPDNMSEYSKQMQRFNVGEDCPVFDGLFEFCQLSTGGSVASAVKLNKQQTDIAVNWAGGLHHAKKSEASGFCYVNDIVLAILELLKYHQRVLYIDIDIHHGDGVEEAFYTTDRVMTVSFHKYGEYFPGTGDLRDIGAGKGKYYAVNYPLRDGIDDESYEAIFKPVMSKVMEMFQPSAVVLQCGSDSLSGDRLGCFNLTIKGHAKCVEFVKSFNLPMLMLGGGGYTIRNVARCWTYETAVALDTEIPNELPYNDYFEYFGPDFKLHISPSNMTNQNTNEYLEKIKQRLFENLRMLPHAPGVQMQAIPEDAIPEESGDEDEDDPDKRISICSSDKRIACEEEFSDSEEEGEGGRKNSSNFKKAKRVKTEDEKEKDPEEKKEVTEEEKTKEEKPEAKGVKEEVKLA
Chain of Histone deacetylase 5 (Q9UQL6 whole entry): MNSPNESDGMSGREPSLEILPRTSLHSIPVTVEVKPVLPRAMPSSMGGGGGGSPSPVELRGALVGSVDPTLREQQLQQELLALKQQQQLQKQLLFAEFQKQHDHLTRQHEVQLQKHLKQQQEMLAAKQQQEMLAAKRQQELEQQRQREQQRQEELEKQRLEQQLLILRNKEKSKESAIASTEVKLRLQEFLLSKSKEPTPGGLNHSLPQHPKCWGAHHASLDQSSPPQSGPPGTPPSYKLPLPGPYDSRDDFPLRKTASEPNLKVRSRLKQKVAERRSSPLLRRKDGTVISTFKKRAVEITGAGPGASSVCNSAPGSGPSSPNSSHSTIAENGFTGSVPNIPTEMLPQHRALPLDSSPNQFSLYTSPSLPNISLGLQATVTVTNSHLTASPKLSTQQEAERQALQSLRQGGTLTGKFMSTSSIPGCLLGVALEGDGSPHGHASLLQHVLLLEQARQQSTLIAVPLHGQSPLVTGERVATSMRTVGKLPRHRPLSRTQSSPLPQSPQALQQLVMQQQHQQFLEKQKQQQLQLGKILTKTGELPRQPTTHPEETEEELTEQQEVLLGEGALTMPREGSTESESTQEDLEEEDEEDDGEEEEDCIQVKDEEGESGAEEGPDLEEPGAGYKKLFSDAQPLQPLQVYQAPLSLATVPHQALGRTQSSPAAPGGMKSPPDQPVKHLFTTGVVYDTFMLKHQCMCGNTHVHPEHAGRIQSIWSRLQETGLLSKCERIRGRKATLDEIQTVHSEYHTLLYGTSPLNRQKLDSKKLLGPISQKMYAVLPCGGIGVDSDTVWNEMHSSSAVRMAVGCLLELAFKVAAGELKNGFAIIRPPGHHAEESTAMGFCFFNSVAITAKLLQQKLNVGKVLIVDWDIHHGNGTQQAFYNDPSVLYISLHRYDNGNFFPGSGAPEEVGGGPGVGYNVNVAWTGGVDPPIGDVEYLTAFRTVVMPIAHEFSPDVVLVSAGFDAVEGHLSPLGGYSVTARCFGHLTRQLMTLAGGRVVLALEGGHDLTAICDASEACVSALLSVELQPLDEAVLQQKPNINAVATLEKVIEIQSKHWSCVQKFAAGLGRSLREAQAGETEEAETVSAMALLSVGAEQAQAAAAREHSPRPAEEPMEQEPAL

The first assay concerns the target Histone deacetylase 1 (Homo sapiens, UniProt Q13547). The assay can be described thus: Inhibition of recombinant human HDAC1 after 60 mins by fluorescence assay.
The pIC50 is the IC50 on a negative log10 scale, so that one unit is a factor of ten. Regarding `C/C=C1\NC(=O)c2csc(n2)[C@@H](C(C)C)NC(=O)C[C@@H](/C=C/CCS)OC(=O)[C@H](C(C)C)NC1=O`, the pIC50 is 8.66.

For the molecule `C/C=C1\NC(=O)c2csc(n2)CNC(=O)C[C@@H](/C=C/CCS)OC(=O)[C@H](C(C)C)NC1=O`, the pIC50 is 8.56.

The target in a further assay is Histone deacetylase 2 (Homo sapiens, UniProt Q92769). The assay can be described thus: Inhibition of recombinant human HDAC2 after 60 mins by fluorescence assay.
Chain of Histone deacetylase 2 (Q92769 whole entry): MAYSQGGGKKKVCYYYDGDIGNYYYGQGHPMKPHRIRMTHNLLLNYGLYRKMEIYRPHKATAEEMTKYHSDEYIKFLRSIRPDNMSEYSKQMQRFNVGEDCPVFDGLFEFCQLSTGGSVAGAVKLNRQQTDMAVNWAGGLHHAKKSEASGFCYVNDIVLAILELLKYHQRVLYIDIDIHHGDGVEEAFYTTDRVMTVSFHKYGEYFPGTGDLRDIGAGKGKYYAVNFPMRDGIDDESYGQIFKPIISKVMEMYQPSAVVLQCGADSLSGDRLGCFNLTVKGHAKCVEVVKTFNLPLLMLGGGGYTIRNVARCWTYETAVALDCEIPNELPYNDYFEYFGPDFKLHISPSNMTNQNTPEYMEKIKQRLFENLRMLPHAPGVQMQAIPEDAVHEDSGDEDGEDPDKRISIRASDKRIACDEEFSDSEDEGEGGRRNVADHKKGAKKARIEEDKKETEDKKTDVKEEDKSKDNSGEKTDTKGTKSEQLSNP
On to `C/C=C1\NC(=O)c2csc(n2)[C@@H](C(C)C)NC(=O)C[C@@H](/C=C/CCS)OC(=O)[C@H](C(C)C)NC1=O`, for which the pIC50 is 7.44.

In the case of `C/C=C1\NC(=O)c2csc(n2)CNC(=O)C[C@@H](/C=C/CCS)OC(=O)[C@H](C(C)C)NC1=O`, the pIC50 is 7.35.

Another assay deals with T1, Histone deacetylase 8 (Homo sapiens, UniProt Q9BY41).
T1 sequence (Q9BY41 whole entry): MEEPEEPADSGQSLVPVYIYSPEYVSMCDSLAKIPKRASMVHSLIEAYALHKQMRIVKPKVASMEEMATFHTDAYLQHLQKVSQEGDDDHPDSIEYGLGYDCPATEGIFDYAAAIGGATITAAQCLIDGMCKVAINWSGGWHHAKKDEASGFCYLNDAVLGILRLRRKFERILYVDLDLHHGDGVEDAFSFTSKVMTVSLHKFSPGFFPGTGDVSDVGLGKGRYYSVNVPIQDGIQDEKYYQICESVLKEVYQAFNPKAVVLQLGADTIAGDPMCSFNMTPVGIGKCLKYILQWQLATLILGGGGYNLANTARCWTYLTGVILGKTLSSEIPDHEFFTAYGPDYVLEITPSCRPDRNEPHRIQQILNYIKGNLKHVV
The assay can be described thus: Inhibition of recombinant human HDAC8 after 60 mins by fluorescence assay.
Turning to `C/C=C1\NC(=O)c2csc(n2)[C@@H](C(C)C)NC(=O)C[C@@H](/C=C/CCS)OC(=O)[C@H](C(C)C)NC1=O`, the pIC50 is 5.59.

Consider `C/C=C1\NC(=O)c2csc(n2)CNC(=O)C[C@@H](/C=C/CCS)OC(=O)[C@H](C(C)C)NC1=O`, for which the pIC50 was 5.45.

Another assay has as its target Histone deacetylase 5 (Homo sapiens, UniProt Q9UQL6). The assay can be described thus: Inhibition of recombinant human HDAC5 after 60 mins by fluorescence assay.
For the molecule `C/C=C1\NC(=O)c2csc(n2)[C@@H](C(C)C)NC(=O)C[C@@H](/C=C/CCS)OC(=O)[C@H](C(C)C)NC1=O`, the negative logarithm of the IC50 (pIC50) was below 5.00.

As to `C/C=C1\NC(=O)c2csc(n2)CNC(=O)C[C@@H](/C=C/CCS)OC(=O)[C@H](C(C)C)NC1=O`, the pIC50 was below 5.00.

Another assay concerns the target T2, Protein deacetylase HDAC6 (Homo sapiens, UniProt Q9UBN7).
T2 sequence (Q9UBN7 whole entry): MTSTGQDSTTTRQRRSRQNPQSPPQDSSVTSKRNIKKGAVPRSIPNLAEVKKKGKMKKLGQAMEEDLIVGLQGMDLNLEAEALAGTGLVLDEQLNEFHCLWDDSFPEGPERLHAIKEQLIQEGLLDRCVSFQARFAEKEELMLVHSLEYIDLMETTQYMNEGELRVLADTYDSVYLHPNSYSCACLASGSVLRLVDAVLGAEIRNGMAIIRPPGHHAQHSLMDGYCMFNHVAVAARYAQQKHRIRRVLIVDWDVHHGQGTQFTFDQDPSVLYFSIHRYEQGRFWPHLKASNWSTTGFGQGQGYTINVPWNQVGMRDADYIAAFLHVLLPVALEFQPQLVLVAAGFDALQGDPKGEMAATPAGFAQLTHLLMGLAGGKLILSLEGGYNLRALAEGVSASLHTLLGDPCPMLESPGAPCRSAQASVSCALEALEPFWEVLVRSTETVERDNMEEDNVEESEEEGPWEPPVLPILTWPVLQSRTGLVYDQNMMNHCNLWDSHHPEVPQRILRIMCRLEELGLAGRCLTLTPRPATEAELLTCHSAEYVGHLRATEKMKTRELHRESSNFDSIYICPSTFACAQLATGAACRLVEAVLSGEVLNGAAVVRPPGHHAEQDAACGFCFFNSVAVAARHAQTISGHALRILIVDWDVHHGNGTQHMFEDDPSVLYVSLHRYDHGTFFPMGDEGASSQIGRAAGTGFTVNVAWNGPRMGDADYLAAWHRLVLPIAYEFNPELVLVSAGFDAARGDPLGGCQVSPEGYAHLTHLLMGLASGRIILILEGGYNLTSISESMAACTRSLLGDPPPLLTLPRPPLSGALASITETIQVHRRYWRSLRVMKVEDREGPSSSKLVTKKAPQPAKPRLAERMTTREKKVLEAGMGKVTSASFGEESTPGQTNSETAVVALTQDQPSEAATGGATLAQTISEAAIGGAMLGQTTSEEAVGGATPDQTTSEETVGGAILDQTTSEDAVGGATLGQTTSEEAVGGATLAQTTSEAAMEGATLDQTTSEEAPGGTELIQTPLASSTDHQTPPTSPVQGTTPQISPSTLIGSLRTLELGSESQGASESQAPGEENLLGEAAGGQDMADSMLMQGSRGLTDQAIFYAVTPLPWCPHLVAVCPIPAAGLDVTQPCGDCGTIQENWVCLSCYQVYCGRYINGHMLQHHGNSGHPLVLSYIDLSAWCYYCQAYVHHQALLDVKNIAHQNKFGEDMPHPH
The assay can be described thus: Inhibition of recombinant human HDAC6 after 60 mins by fluorescence assay.
For `C/C=C1\NC(=O)c2csc(n2)[C@@H](C(C)C)NC(=O)C[C@@H](/C=C/CCS)OC(=O)[C@H](C(C)C)NC1=O`, the pIC50 is 6.34.

`C/C=C1\NC(=O)c2csc(n2)CNC(=O)C[C@@H](/C=C/CCS)OC(=O)[C@H](C(C)C)NC1=O`: the pIC50 is 6.48.

The next assay addresses T3, Polyamine deacetylase HDAC10 (Homo sapiens, UniProt Q969S8).
T3 sequence (Q969S8 whole entry): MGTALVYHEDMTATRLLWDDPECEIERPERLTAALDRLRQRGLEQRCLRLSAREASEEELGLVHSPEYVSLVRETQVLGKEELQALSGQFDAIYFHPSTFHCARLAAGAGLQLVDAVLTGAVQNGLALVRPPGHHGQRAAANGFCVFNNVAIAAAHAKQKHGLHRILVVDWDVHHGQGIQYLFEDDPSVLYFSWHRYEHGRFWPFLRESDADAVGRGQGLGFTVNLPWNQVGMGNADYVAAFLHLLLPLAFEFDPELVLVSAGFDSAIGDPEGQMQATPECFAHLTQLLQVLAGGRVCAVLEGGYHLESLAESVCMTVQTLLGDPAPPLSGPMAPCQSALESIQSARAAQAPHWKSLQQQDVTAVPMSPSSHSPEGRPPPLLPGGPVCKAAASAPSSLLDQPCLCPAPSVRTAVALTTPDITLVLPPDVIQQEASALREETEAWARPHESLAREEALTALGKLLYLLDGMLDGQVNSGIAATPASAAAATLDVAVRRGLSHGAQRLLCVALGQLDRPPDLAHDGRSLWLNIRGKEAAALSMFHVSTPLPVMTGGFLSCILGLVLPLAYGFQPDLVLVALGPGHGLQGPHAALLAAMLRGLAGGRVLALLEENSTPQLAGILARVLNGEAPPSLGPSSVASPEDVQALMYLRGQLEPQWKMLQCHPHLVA
Nature of the assay: Inhibition of recombinant human HDAC10 after 60 mins by fluorescence assay.
Regarding `C/C=C1\NC(=O)c2csc(n2)[C@@H](C(C)C)NC(=O)C[C@@H](/C=C/CCS)OC(=O)[C@H](C(C)C)NC1=O`, the pIC50 was 6.86.

Take `C/C=C1\NC(=O)c2csc(n2)CNC(=O)C[C@@H](/C=C/CCS)OC(=O)[C@H](C(C)C)NC1=O`: the negative-log IC50 (pIC50) was 7.43.

For another assay, the target named is T4, Histone deacetylase 11 (Homo sapiens, UniProt Q96DB2).
T4 sequence (Q96DB2 whole entry): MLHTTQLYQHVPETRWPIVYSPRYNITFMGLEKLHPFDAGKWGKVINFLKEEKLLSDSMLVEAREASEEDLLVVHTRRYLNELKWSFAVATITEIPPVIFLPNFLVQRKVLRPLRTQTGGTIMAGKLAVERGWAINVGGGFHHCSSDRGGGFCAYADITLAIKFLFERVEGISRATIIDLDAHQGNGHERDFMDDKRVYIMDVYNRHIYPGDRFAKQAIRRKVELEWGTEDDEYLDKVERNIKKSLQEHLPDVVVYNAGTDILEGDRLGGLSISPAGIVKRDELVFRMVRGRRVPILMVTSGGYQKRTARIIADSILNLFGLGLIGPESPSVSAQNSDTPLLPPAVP
Nature of the assay: Inhibition of recombinant human HDAC11 after 60 mins by fluorescence assay.
In the case of `C/C=C1\NC(=O)c2csc(n2)[C@@H](C(C)C)NC(=O)C[C@@H](/C=C/CCS)OC(=O)[C@H](C(C)C)NC1=O`, the pIC50 was below 5.00.

For `C/C=C1\NC(=O)c2csc(n2)CNC(=O)C[C@@H](/C=C/CCS)OC(=O)[C@H](C(C)C)NC1=O`, the pIC50 is below 5.00.
